# Where “and” joins values, the source holds several entries; their conditions need not be identical. Equal entries are not always repeated.
# System: outpatients with probable AD
# Test: Pharmacogenetic analysis of ADAS-Cog response to rivastigmine by ApoE ε4 carrier status in Phase III trials ENA 713 B351 and ENA 713 B352
# Type: in vivo, human
# Design: key to mean of change from baseline in ADAS-Cog score at end of study: change from baseline in ADAS-Cog score points
# Conditions: for response to treatment (non-deterioration, Table 7), share of individuals: rivastigmine greater than or equal to 6 mg; for 4-point improvement in the ADAS-Cog score (number of individuals) / Deterioration in the ADAS-Cog score (number of individuals) / No 4-point improvement in the ADAS-Cog score (number of individuals) / Non-deterioration in the ADAS-Cog score (number of individuals): 26 weeks
# Description: A pharmacogenetic study of the effect of a patients ApoE ε4 genotype on the response to the ChEI, rivastigmine was conducted. Rivastigmine tartrate is an inhibitor of both AChE and BuChE and is commercially available under the name EXELON™ from Novartis Pharmaceuticals Corporation, East Hanover, N.J. Individuals In the trial were divided into treatment groups depending on the dose they received, namely <6 mg/day of rivastigmine, 6-12 mg/day of rivastigmine and placebo. Each treatment group was analyzed separately. Individuals in each treatment group were then classified as ApoE ε4 carriers or non-carriers based on the genotype data. A significant association (P=0.0071) between the ApoE ε4 carriers and the greater than 4 point improvement was found in the 6-12 mg group. In contrast, the association of the ApoE ε4 allele with non-deterioration in the study was not significant (P=0.1172) in the same group.
# The Phase III clinical trials ENA 713 B352 and ENA 713 B351 are multicenter, double-blind, placebo-controlled, parallel-group study to examine the effect of rivastigmine in outpatients with probable AD. Both trials are conducted over a period of 26 weeks. ENA 713 B351 has 4 treatment arms with comprising of rivastigmine 3 mg/day, rivastigmine 6 mg/day, rivastigmine 9 mg/day or placebo. The initial dose-titration phase (Weeks 1-12) was followed by a fixed-dose phase (Week 13-26), for a total randomized double-blind treatment period of 26 weeks. ENA 713 B352 has 3 treatment arms with comprising of rivastigmine 1-4 mg/day, rivastigmine 6-12 mg/day, and placebo. The initial dose-titration phase (Weeks 1-7) was followed by a fixed-dose phase (Week 8-26), for a total randomized, double-blind treatment period of 26 weeks. The blood samples were handled by the Roskamp Institute, University of South Florida.
# Individuals in the trial were classified as being responders if the final change from their baseline ADAS-COG scores is less than or equal to 4-points. A Fisher's Exact test was used to find an association between ApoE genotype and response.
# Individuals in the trial were classified as being responders if the final change from their baseline ADAS-Cog scores is less than or equal to 0 points. A Fisher's Exact test was used to find an association between ApoE genotype and response.
# Treatment differences in the ApoE ε4 and non-ApoE ε4 carriers were also analyzed. Treatment differences being measured as the 4-point decrease and the non-deterioration classes. An exact Cochran-Armitage test for trend is used to determine if the numbers of responders increase with dose of rivastigmine among each genotype group.
# The trial population was divided into three groups based on the treatment they received. The three groups are placebo, rivastigmine <6 mg/day and rivastigmine ≧6 mg/day. All analyses were conducted within each group separately. The genotype data for the ApoE were re-coded for the presence or absence of the […]. The re-coded genotype data were used as the categorical variable.
# A non-parametric analysis of variance (ANOVA) model was used for the analysis. Change from baseline in the ADAS-Cog score is used as the dependent variable.
# [1] = rivastigmine <6 mg/day, No ε4 allele
# [2] = rivastigmine <6 mg/day, ε4 allele carriers
# [3] = rivastigmine ≧6 mg/day, No ε4 allele
# [4] = rivastigmine ≧6 mg/day, No ε4 allele, listed as Rivastigmine
# [5] = rivastigmine ≧6 mg/day, ε4 allele carriers
compound,measurement,setting,value
CCN(C)C(=O)Oc1cccc([C@H](C)N(C)C)c1 [rivastigmine],"response to treatment (non-deterioration, Table 7), share of individuals",ApoE ε4 carriers,65%
same,mean of change from baseline in ADAS-Cog score at end of study,"Rivastigmine <6 mg/day, No ε4 allele",1.444
same,mean of change from baseline in ADAS-Cog score at end of study,"Rivastigmine <6 mg/day, ε4 allele",1.293
same,mean of change from baseline in ADAS-Cog score at end of study,"Rivastigmine ≧6 mg/day, No ε4 allele, listed as Rivastigmine",0.39
same,mean of change from baseline in ADAS-Cog score at end of study,"Rivastigmine ≧6 mg/day, ε4 allele",−1.74
same,"response to treatment (non-deterioration, Table 7), share of individuals",non-ApoE ε4 carriers,48.7%
same,4-point improvement in the ADAS-Cog score (number of individuals),[1],4
same,Deterioration in the ADAS-Cog score (number of individuals),[1],24
same,No 4-point improvement in the ADAS-Cog score (number of individuals),[1],32
same,Non-deterioration in the ADAS-Cog score (number of individuals),[1],12
same,No 4-point improvement in the ADAS-Cog score (number of individuals),"rivastigmine <6 mg/day, No ε4 allele, listed as Rivastigmine",37
same,4-point improvement in the ADAS-Cog score (number of individuals),[2],12
same,Deterioration in the ADAS-Cog score (number of individuals),[2],63
same,No 4-point improvement in the ADAS-Cog score (number of individuals),[2],83
same,Non-deterioration in the ADAS-Cog score (number of individuals),[2],32 and 12
same,4-point improvement in the ADAS-Cog score (number of individuals),[3],4
same,Deterioration in the ADAS-Cog score (number of individuals),[3],21
same,No 4-point improvement in the ADAS-Cog score (number of individuals),[3],37
same,Non-deterioration in the ADAS-Cog score (number of individuals),[3],20
same,4-point improvement in the ADAS-Cog score (number of individuals),[4],26
same,No 4-point improvement in the ADAS-Cog score (number of individuals),[4],54
same,4-point improvement in the ADAS-Cog score (number of individuals),[5],26
same,Deterioration in the ADAS-Cog score (number of individuals),[5],28
same,No 4-point improvement in the ADAS-Cog score (number of individuals),[5],54
same,Non-deterioration in the ADAS-Cog score (number of individuals),[5],52

# — patent publication US20080214662A1, “METHODS FOR THE TREATMENT OF DEMENTIA BASED ON APO E GENOTYPE” (priority 2002, published 2008)
